Source: patent US20200022370A1, “MICROBIOCIDAL OXADIAZOLE DERIVATIVES” (SYNGENTA PARTICIPATIONS AG, priority 2016, published 2020)

How the values were obtained:
[1] = system: Phakopsora pachyrhizi; assay: Phakopsora pachyrhizi / soybean / leaf disc preventative (Asian soybean rust); assay type: in vivo; conditions: foliar, 200 ppm in the applied formulation, soybean leaf disks, inoculated one day after application, vs untreated, 12 to 14 days after application, read-out: disease control
Experimental: (§1) Leaf disks or leaf segments of various plant species are cut from plants grown in a greenhouse. The cut leaf disks or segments are placed in multiwell plates (24-well format) onto water agar. The leaf disks are sprayed with a test solution before (preventative) or after (curative) inoculation. Compounds to be tested are prepared as DMSO solutions (max. 10 mg/ml) which are diluted to the appropriate concentration with 0.025% Tween20 just before spraying. The inoculated leaf disks or segments are incubated under defined conditions (temperature, relative humidity, light, etc.) according to the respective test system. A single evaluation of disease level is carried out 3 to 14 days after inoculation, depending on the pathosystem. Percent disease control relative to the untreated check leaf disks or segments is then calculated.
Example 3: Fungicidal Activity Against Phakopsora pachyrhizi/Soybean/Leaf Disc Preventative (Asian Soybean Rust)
Soybean leaf disks are placed on water agar in multiwell plates (24-well format) and sprayed with the Formulated test compound diluted in water. One day after application leaf discs are inoculated by spraying a spore suspension on the lower leaf surface. After an incubation period in a climate cabinet of 24-36 hours in darkness at 20° C. and 75% rh leaf disc are kept at 20° C. with 12 h light/day and 75% rh. The activity of a compound is assessed as percent disease control compared to untreated when an appropriate level of disease damage appears in untreated check leaf disks (12 to 14 days after application).
(§2) The following compounds at 200 ppm in the applied Formulation give at least 80% disease control in this test when compared to untreated control leaf disks under the same conditions, which show extensive disease development.

[2] = system: Puccinia recondita f. Sp. Tritici; assay: Puccinia recondita f. sp. tritici / wheat / leaf disc preventative (brown rust); assay type: in vivo; conditions: foliar, 200 ppm in the applied formulation, wheat leaf segments cv. Kanzler, inoculated 1 day after application, vs untreated, 7 to 9 days after application, read-out: disease control
Experimental: as §1
Example 1: Fungicidal Activity Against Puccinia recondita f. Sp. Tritici/Wheat/Leaf Disc Preventative (Brown Rust)
Wheat leaf segments cv. Kanzler were placed on agar in multiwell plates (24-well format) and sprayed with the Formulated test compound diluted in water. The leaf disks were inoculated with a spore suspension of the fungus 1 day after application. The inoculated leaf segments were incubated at 19° C. and 75% relative humidity (rh) under a light regime of 12 hours light/12 hours darkness in a climate cabinet and the activity of a compound was assessed as percent disease control compared to untreated when an appropriate level of disease damage appears in untreated check leaf segments (7 to 9 days after application).
as §2

[3] = system: Glomerella lacenarium (Colletotrichum lacenarium); assay: Glomerella lacenarium (Colletotrichum lacenarium) liquid culture / cucumber / preventative (anthracnose); assay type: cell-based; conditions: 20 ppm, liquid culture in PDB, 24° C., inhibition of growth measured photometrically 3 to 4 days after application, vs untreated, read-out: disease control
Experimental: Mycelia fragments or conidia suspensions of a fungus prepared either freshly from liquid cultures of the fungus or from cryogenic storage, are directly mixed into nutrient broth. DMSO solutions of the test compound (max. 10 mg/ml) are diluted with 0.025% Tween20 by a factor of 50 and 10 μl of this solution is pipetted into a microtiter plate (96-well format). The nutrient broth containing the fungal spores/mycelia fragments is then added to give an end concentration of the tested compound. The test plates are incubated in the dark at 24° C. and 96% relative humidity. The inhibition of fungal growth is determined photometrically after 2 to 7 days, depending on the pathosystem, and percent antifungal activity relative to the untreated check is calculated.
Example 4: Fungicidal Activity Against Glomerella lacenarium (Colletotrichum lacenarium) Liquid Culture/Cucumber/Preventative (Anthracnose)
Conidia of the fungus from cryogenic storage are directly mixed into nutrient broth (PDB-potato dextrose broth). After placing a (DMSO) solution of test compound into a microtiter plate (96-well format), the nutrient broth containing the fungal spores is added. The test plates are incubated at 24° C. and the inhibition of growth is measured photometrically 3 to 4 days after application.
The following compounds at 20 ppm in the applied Formulation give at least 80% disease control in this test when compared to untreated control under the same conditions, which show extensive disease development.

O=C(Cc1ccc2c(c1)OCO2)Nc1ccc(-c2noc(C(F)(F)F)n2)cc1 [Compound 1.12, 2-(1,3-benzodioxol-5-yl)-N-[4-[5-(trifluoromethyl)-1,2,4-oxadiazol-3-yl]phenyl]acetamide] was tested, and the pest or weed control at 200 ppm [1] was ≥ 80%, the pest or weed control at 200 ppm [2] was ≥ 80% and the inhibition of growth at 20 ppm [3] was ≥ 80%.
CCC(=O)Nc1ccc(CC(=O)Nc2ccc(-c3noc(C(F)(F)F)n3)cc2)cc1 [Compound 1.27, N-[4-[2-oxo-2-[4-[5-(trifluoromethyl)-1,2,4-oxadiazol-3-yl]anilino]ethyl]phenyl]propanamide] was tested, and the pest or weed control at 200 ppm [1] was ≥ 80%.
For COc1ncnc(OC)c1CC(=O)Nc1ccc(-c2noc(C(F)(F)F)n2)cc1 [Compound 1.36, 2-(4,6-dimethoxypyrimidin-5-yl)-N-[4-[5-(trifluoromethyl)-1,2,4-oxadiazol-3-yl]phenyl]acetamide], the pest or weed control at 200 ppm [1] was ≥ 80%, the pest or weed control at 200 ppm [2] was ≥ 80% and the inhibition of growth at 20 ppm [3] was ≥ 80%.
For COCc1nc(C)c(C(=O)Nc2ccc(-c3noc(C(F)(F)F)n3)nc2)s1 [Compound 1.51, 2-(methoxymethyl)-4-methyl-N-[6-[5-(trifluoromethyl)-1,2,4-oxadiazol-3-yl]-3-pyridyl]thiazole-5-carboxamide], the pest or weed control at 200 ppm [1] was ≥ 80%.
With CC(C)(C(=O)Nc1ccc(-c2noc(C(F)(F)F)n2)nc1)c1ncc(Cl)cc1Cl [Compound 1.53, 2-(3,5-dichloro-2-pyridyl)-2-methyl-N-[6-[5-(trifluoromethyl)-1,2,4-oxadiazol-3-yl]-3-pyridyl]propanamide] the pest or weed control at 200 ppm [1] was ≥ 80%.
O=C(Nc1ccc(-c2noc(C(F)(F)F)n2)nc1)c1ccc(-n2ccnc2)cc1 [Compound 1.54, 4-imidazol-1-yl-N-[6-[5-(trifluoromethyl)-1,2,4-oxadiazol-3-yl]-3-pyridyl]benzamide] was tested, and the pest or weed control at 200 ppm [1] was ≥ 80%, the pest or weed control at 200 ppm [2] was ≥ 80% and the inhibition of growth at 20 ppm [3] was ≥ 80%.
O=C(Nc1ccc(-c2noc(C(F)(F)F)n2)cc1)C1=CCCC1 [Compound 1.81, N-[4-[5-(trifluoromethyl)-1,2,4-oxadiazol-3-yl]phenyl] cyclopentene-1-carboxamide] was tested, and the pest or weed control at 200 ppm [1] was ≥ 80% and the inhibition of growth at 20 ppm [3] was ≥ 80%.
With CCC(CC)C(=O)Nc1ccc(-c2noc(C(F)(F)F)n2)cc1 [Compound 1.91, 2-ethyl-N-[4-[5-(trifluoromethyl)-1,2,4-oxadiazol-3-yl]phenyl]butanamide] the pest or weed control at 200 ppm [1] was ≥ 80% and the inhibition of growth at 20 ppm [3] was ≥ 80%.
For O=C(Nc1ccc(-c2noc(C(F)(F)F)n2)cc1)C1CCSCC1 [Compound 1.96, N-[4-[5-(trifluoromethyl)-1,2,4-oxadiazol-3-yl]phenyl] tetrahydrothiopyran-4-carboxamide], the pest or weed control at 200 ppm [2] was ≥ 80% and the inhibition of growth at 20 ppm [3] was ≥ 80%.
With O=C(CC1CC(F)(F)C1)Nc1ccc(-c2noc(C(F)(F)F)n2)cc1 [Compound 1.97, 2-(3,3-difluorocyclobutyl)-N-[4-[5-(trifluoromethyl)-1,2,4-oxadiazol-3-yl]phenyl]acetamide] the pest or weed control at 200 ppm [2] was ≥ 80% and the inhibition of growth at 20 ppm [3] was ≥ 80%.
O=C(CCCC=C(F)F)Nc1ccc(-c2noc(C(F)(F)F)n2)cc1 [Compound 1.98, 6,6-difluoro-N-[4-[5-(trifluoromethyl)-1,2,4-oxadiazol-3-yl]phenyl]hex-5-enamide] was tested, and the pest or weed control at 200 ppm [2] was ≥ 80% and the inhibition of growth at 20 ppm [3] was ≥ 80%.
In the case of O=C(Cc1ccccc1F)Nc1ccc(-c2noc(C(F)(F)F)n2)cc1 [Compound 1.100, 2-(2-fluorophenyl)-N-[4-[5-(trifluoromethyl)-1,2,4-oxadiazol-3-yl]phenyl]acetamide], the pest or weed control at 200 ppm [2] is reported as ≥ 80% and the inhibition of growth at 20 ppm [3] is reported as ≥ 80%.
In the case of CC(CO)(CCl)C(=O)Nc1ccc(-c2noc(C(F)(F)F)n2)cc1 (stereo not drawn) [Compound 1.103, 2-(chloromethyl)-3-hydroxy-2-methyl-N-[4-[5-(trifluoromethyl)-1,2,4-oxadiazol-3-yl]phenyl] propanamide], the pest or weed control at 200 ppm [2] is reported as ≥ 80% and the inhibition of growth at 20 ppm [3] is reported as ≥ 80%.
In the case of O=C(CCc1cccnc1)Nc1ccc(-c2noc(C(F)(F)F)n2)cc1 [Compound 1.105, 3-(3-pyridyl)-N-[4-[5-(trifluoromethyl)-1,2,4-oxadiazol-3-yl]phenyl] propanamide], the pest or weed control at 200 ppm [2] is reported as ≥ 80% and the inhibition of growth at 20 ppm [3] is reported as ≥ 80%.
In the case of O=C1CC(C(=O)Nc2ccc(-c3noc(C(F)(F)F)n3)cc2)C1 [Compound 1.106, 3-oxo-N-[4-[5-(trifluoromethyl)-1,2,4-oxadiazol-3-yl]phenyl]cyclo-butanecarboxamide], the pest or weed control at 200 ppm [2] is reported as ≥ 80% and the inhibition of growth at 20 ppm [3] is reported as ≥ 80%.
In the case of O=C(Nc1ccc(-c2noc(C(F)(F)F)n2)cc1)C1OCCO1 [Compound 1.113, N-[4-[5-(trifluoromethyl)-1,2,4-oxadiazol-3-yl]phenyl]-1,3-dioxolane-2-carboxamide], the pest or weed control at 200 ppm [2] is reported as ≥ 80% and the inhibition of growth at 20 ppm [3] is reported as ≥ 80%.
With O=C(Cc1cc(C(F)(F)F)ccn1)Nc1ccc(-c2noc(C(F)(F)F)n2)cc1 [Compound 1.115, N-[4-[5-(trifluoromethyl)-1,2,4-oxadiazol-3-yl]phenyl]-2-[4-(trifluoromethyl)-2-pyridyl]acetamide] the pest or weed control at 200 ppm [2] was ≥ 80% and the inhibition of growth at 20 ppm [3] was ≥ 80%.
With O=C(Nc1ccc(-c2noc(C(F)(F)F)n2)cc1)C(F)F [Compound 1.120, 2,2-difluoro-N-[4-[5-(trifluoromethyl)-1,2,4-oxadiazol-3-yl]phenyl]acetamide] the pest or weed control at 200 ppm [2] was ≥ 80% and the inhibition of growth at 20 ppm [3] was ≥ 80%.
For COCCOCC(=O)Nc1ccc(-c2noc(C(F)(F)F)n2)cc1 [Compound 1.122, 2-(2-methoxyethoxy)-N-[4-[5-(trifluoromethyl)-1,2,4-oxadiazol-3-yl]phenyl]acetamide], the pest or weed control at 200 ppm [2] was ≥ 80% and the inhibition of growth at 20 ppm [3] was ≥ 80%.
CN(C(=O)C1CC1(F)F)c1ccc(-c2noc(C(F)(F)F)n2)cc1 (stereo not drawn) [Compound 1.133, 2,2-difluoro-N-methyl-N-[4-[5-(trifluoromethyl)-1,2,4-oxadiazol-3-yl]phenyl]cyclo-propanecarboxamide] was tested, and the pest or weed control at 200 ppm [1] was ≥ 80%.
For CC1CC1C(=O)N(C)c1ccc(-c2noc(C(F)(F)F)n2)cc1 (stereo not drawn) [Compound 1.137, N,2-dimethyl-N-[4-[5-(trifluoromethyl)-1,2,4-oxadiazol-3-yl]phenyl]cyclo-propanecarboxamide], the pest or weed control at 200 ppm [1] was ≥ 80% and the inhibition of growth at 20 ppm [3] was ≥ 80%.
With CN(C(=O)C1(C)CC1)c1ccc(-c2noc(C(F)(F)F)n2)cc1 [Compound 1.138, N,1-dimethyl-N-[4-[5-(trifluoromethyl)-1,2,4-oxadiazol-3-yl]phenyl]cyclo-propanecarboxamide] the pest or weed control at 200 ppm [1] was ≥ 80%.
With O=C(Nc1ccc(-c2noc(C(F)(F)F)n2)cc1)C1CCCC1 [Compound 2.6, N-[4-[5-(trifluoromethyl)-1,2,4-oxadiazol-3-yl]phenyl] cyclopentane-carboxamide] the pest or weed control at 200 ppm [2] was ≥ 80% and the inhibition of growth at 20 ppm [3] was ≥ 80%.
In the case of O=C(Nc1ccc(-c2noc(C(F)(F)F)n2)cc1)C1CCC1 [Compound 2.9, N-[4-[5-(trifluoromethyl)-1,2,4-oxadiazol-3-yl]phenyl] cyclobutane-carboxamide], the pest or weed control at 200 ppm [2] is reported as ≥ 80% and the inhibition of growth at 20 ppm [3] is reported as ≥ 80%.
CCC(=O)N(OC)c1ccc(-c2noc(C(F)(F)F)n2)cc1 [Compound 2.28, N-methoxy-N-[4-[5-(trifluoromethyl)-1,2,4-oxadiazol-3-yl]phenyl] propanamide] was tested, and the pest or weed control at 200 ppm [1] was ≥ 80% and the inhibition of growth at 20 ppm [3] was ≥ 80%.
